# Legend:
# Raji cell line xenograft = conditions: Raji xenograft mouse, lenalidomide alone; cited from earlier work
# CD38 = test: Immunophenotyping (flow cytometry) of CD38 on CLL cells; format: cell-based, human; conditions: 0.5 μM, 48 h, vs vehicle, n=6, P<0.05
# Method: (§1) Immunophenotyping was performed to determine the percentage and mean fluorescence intensity of CD20, CD19, CD5, CD23, CD38, CD3, and CD52 on CLL cells relative to a specific isotype control. Cells (10^6) were washed in PBS, stained with fluorochrome-labeled antibodies at 4° C., then rinsed in PBS and analyzed by flow cytometry (EPICS-XL; Beckman Coulter, Fullerton, Calif.). A total of 10,000 events were collected and analyzed using Windows Multiple Document Interface for Flow Cytometry (WinMDI). CD20, CD19, CD3, CD5, CD23, and CD38 antibodies were obtained from BD Biosciences (San Jose, Calif.), and CD52 antibody was obtained from Serotec (Raleigh, N.C.).
# CLL cells [1] = test: Immunoliposome FAM-ODN uptake studies; format: cell-based, human
# Method: An ethanol dilution method was modified to prepare the FAM-ODN-loaded immunoliposomes.^25 Briefly, protamine sulfate in citric acid (20 mM, pH 4) was mixed with lipids (DC-Chol/Egg-PC/PEG-DSPE [molar ratio]=28.0:70.0:2.0) at a mass ratio of lipids:protamine=12.5:0.3, followed by addition of ODN in citric acid (20 mM, pH 4) at ODN/lipids/protamine (weight ratio)=1:12.5:0.3. The complexes were then dialyzed against citric acid (20 mM, pH 4) for 1 hour and then further dialyzed against N-2-hydroxyethylpiperazine-N′-2-ethanesulfonic acid-buffered saline (145 mM NaCl, 20 mM N-2-hydroxyethylpiperazine-N′-2-ethanesulfonic acid, pH 7.4) overnight, using a DispoDialyzer (Spectrum Labs, Rancho Dominguez, Calif.) with a molecular weight cutoff of 10,000 Da. Liposome size distribution was analyzed by dynamic light scattering on a NICOMP Particle Sizer Model 370 (Particle Sizing Systems, Santa Barbara, Calif.).
# A postinsertion method was adopted to incorporate antibody ligands into preformed liposomes containing FAM-ODN. In this method, rituximab, trastuzumab (anti-Her2), or alemtuzumab (anti-CD52) was incubated with 20× Traut reagent (2 hours at room temperature) to yield sulfhydryl-modified antibodies. The anti-CD20—sulfhydryl was then incubated with micelles of Mal-PEG-DSPE at a molar ratio of 1:10 and then incubated with FAM-ODN loaded liposomes for 1 hour at 37° C. Targeted liposomes with antibody-PEG-DSPE-to-lipid ratios of 1:1000 ([…]) were thus prepared.
# CLL cells were incubated at 10^6 cells/mL for 1 hour at 37° C. with rituximab-, trastuzumab-, or alemtuzumab-coated immunoliposome-FAM-ODN (CODN=1.0 μM) and washed twice in PBS. Cells were kept in culture in RPMI 10% fetal bovine serum for an additional 1, 4, and 24 hours, respectively, in the presence of either 0.5 μM lenalidomide or vehicle control. […] Cells were visualized on a Nikon fluorescence microscope (magnification ×200).
# The inventors herein used a FAM-ODN formulated into rituximab-coated immunoliposomes. […] Cells were visualized on a Nikon fluorescence microscope (magnification, ×200).
# human monocytes = test: Antibody-dependent cellular phagocytosis by human monocytes; format: cell-based; conditions: data not shown
# CD20 = test: Immunophenotyping (flow cytometry) of CD20 on CLL cells; format: cell-based, human
# Method: as §1
# All analyses were performed by the Center for Biostatistics, The Ohio State University. Mixed effects models were fitted to the cytotoxicity data. Random effects associated with the interactions were always included in the models to ensure that error was not underestimated. SPSS software, version 13.0 (SPSS, Chicago, Ill.) was used for the statistical analysis. Nonparametric paired Wilcoxon signed ranked tests were performed to examine both the proportion and mean fluorescence intensity change of cells expressing specific antigens after treatment with lenalidomide or media for 48 hours. A paired t test was used to evaluate whether there was a change in CD20 expression level between cells treated with lenalidomide and untreated control.
# CD19 = test: Immunophenotyping (flow cytometry) of CD19 on CLL cells; format: cell-based, human; conditions: 0.5 μM, vs vehicle
# Method: as §1
# CLL cells [2] = test: ADCC, 4-hour 51Cr-release assay; format: cell-based, human
# Method: For ADCC experiments, CD56^+ and CD19^+ cells were negatively purified from whole blood obtained from either healthy volunteers or CLL subjects by magnetic-activated cell sorting according to the manufacturer's recommendations (MiniMACS; Miltenyi Biotec, Auburn, Calif.). The purity of enriched populations was always greater than 95% of the total yield as detected by CD19 and CD3 staining.
# ADCC activity was determined by standard 4-hour ^51Cr-release assay. ^51Cr-labeled target cells (10^5 CLL cells/mL) were incubated with media alone or in the presence of various antibodies (10 μg/mL) at 37° C. for 30 minutes. Unbound antibody was washed off and the cells plated at 10^4 cells/well. Effector cells (natural killer [NK] cells from healthy donors or CLL subjects) were then added to the plates at indicated effector-to-target (E:T) ratios. After a 4-hour incubation, supernatants were removed and measured using a gamma counter. The percentage of specific cell lysis was determined by the equation: % lysis=100×(ER−SR)/(MR−SR), where ER, SR, and MR represent experimental, spontaneous, and maximum release, respectively. Data were normalized to the untreated control.
# CD5 = test: Immunophenotyping (flow cytometry) of CD5 on CLL cells; format: cell-based, human; conditions: 0.5 μM, vs vehicle
# Method: as §1
# [3] = rituximab-coated immunoliposome-FAM-ODN, 0.5 μM lenalidomide
# [4] = dose range 0.05-3 μM, evaluated at 24, 48 and 72 hours
smiles,measurement,setting,value
Nc1cccc2c1CN(C1CCC(=O)NC1=O)C2=O (centres unmarked) [lenalidomide],NK cell expansion,Raji cell line xenograft,induced NK cell expansion
same,tumor growth,Raji cell line xenograft,failed to inhibit tumor growth
same,CD38 activation marker level on CLL cells,CD38,increased levels
same,internalization of fluorochrome-labeled ODN from rituximab-coated immunoliposomes,"CLL cells [1]; 0.5 μM lenalidomide after 1 h immunoliposome-FAM-ODN (1.0 μM), N=3",enhanced internalization
same,earliest time of enhanced ODN internalization,CLL cells [1]; [3],1 h
same,time of maximum effect on ODN internalization,CLL cells [1]; [3],24 h
same,antibody-dependent cellular phagocytosis,human monocytes,not modulated
same,reduction in the proportion of CD20-expressing cells,"CD20; 0.5 μM, 48 h, compared with vehicle-treated controls, n=18, P<0.001",at least 40%
same,reduction in relative mean fluorescence intensity of CD20-expressing cells,"CD20; 0.5 μM, 48 h, compared with vehicle-treated controls, n=18, P=0.001",at least 40%
same,concentration of maximum effect on CD20 down-regulation,CD20; [4],0.5 µM
same,time of maximum effect on CD20 down-regulation,CD20; [4],72 h
same,CD19 expression on CLL cells,CD19,no changes
same,rituximab-mediated ADCC,"CLL cells [2]; cotreatment of autologous NK cells and primary CLL cells, 0.5 μM, 72 hours, vs NK-only controls, N=2, P=0.02",diminished
same,rituximab-mediated ADCC,"CLL cells [2]; lenalidomide-pretreated CLL B cells, allogeneic NK cells, N=5, P<0.05",decrease
same,rituximab-mediated ADCC,"CLL cells [2]; lenalidomide-pretreated CLL B cells, autologous NK cells, N=2, P<0.05",decrease
same,rituximab-mediated ADCC against target CLL subject cells,"CLL cells [2]; lenalidomide-treated NK cells from a healthy donor, N=4, P=0.009",overall enhancement
same,CD5 expression on CLL cells,CD5,no changes

# Reference: patent publication US20110280913A1, “Methods and Compositions for Delivering Therapeutic Agents in the Treatment of B-Cell Related Disorders” (THE OHIO STATE UNIVERSITY, priority 2008, published 2011)
